Experimental data taken from ChEMBL document CHEMBL1156829 (Proc Natl Acad Sci U S A, 2008).

Legend:
Plasmodium falciparum [1] = assay: NOVARTIS: Inhibition of Plasmodium falciparum 3D7 (drug-susceptible) proliferation in erythrocyte-based infection assay; type: functional, organism-based
Plasmodium falciparum [2] = assay: NOVARTIS: Inhibition of Plasmodium falciparum W2 (drug-resistant) proliferation in erythrocyte-based infection assay; type: functional, organism-based; settings: read-out: EC50
[3] = NOVARTIS: Cytotoxicity against human hepatocellular carcinoma cell line (Huh7); type: toxicity, cell-based, Huh-7; settings: Huh7 cells (hepatocellular carcinoma cell line)

Compound	EC50 (Plasmodium falciparum [1]; Plasmodium falciparum, 3D7) [nM]	EC50 (Plasmodium falciparum [2]; Plasmodium falciparum, W2) [nM]	CC50 [3] [µM]	EC50 (Plasmodium falciparum [1]) [nM]	EC50 (Plasmodium falciparum [2]) [nM]
C[n+]1c(/C=C/c2ccc(Cl)c(Cl)c2)ccc2ccccc21	295	390	> 10		
Fc1ccccc1Nc1nc(NCC2CCCO2)c2ccccc2n1 (stereo unspecified)	669	637	34.2		
O=C(Nc1ccc(Cl)c(Cl)c1)Nc1cc(C(=O)NCCCN2CCCCCC2)ccc1Cl	791	1420	> 43		
COc1cccc(C(=O)Oc2ccccc2-c2nc3cc(C)ccn3c2NC(C)(C)CC(C)(C)C)c1	986	6.15	> 10		
CN(CCCNc1ccnc2cc(Cl)ccc12)C(=O)c1ccc(Br)cc1	688	13.4	2.61		
N#C/C(=C\c1cc2ccccc2nc1Cl)c1nc(-c2ccc(Cl)c(Cl)c2)cs1	> 1250	> 1010	> 10		
CN(C)c1ccc(C=C2C(=O)NC(=O)N(Cc3ccccc3Cl)C2=O)cc1	> 12500	1550	> 100		
CCOC(=O)C1=C(C)N=c2sc(=Cc3c4ccccc4cc4ccccc34)c(=O)n2C1c1cc(OC)ccc1OC (stereo unspecified)	> 12500	4770	> 100		
Cc1ccc2nc3c(c(Nc4ccc(N(C)C)cc4)c2c1)CCC3	1790	950	19.8		
CCCCCCCSc1c(O)c2ccc(Cl)cc2[nH]c1=O	122	272	> 10		
CC(C)c1ccc(NC(=O)/C=C/c2ccccc2Cl)cc1	186	109	> 10		
Cc1cc(C)cc(NC(=O)c2cc(-c3ccc(Cl)cc3)nc3ccccc23)c1	> 1250	> 716	> 10		
CCOC(=O)C1=C(C)NC2=C(C(=O)CC(C)(C)C2)C1c1cc(I)sc1SC (stereo unspecified)	798	287	> 100		
CN(C)CCCNc1ncnc2c1[nH]c1ccc(F)cc12	93.1	305	48.7		
CCCCCc1ccc(C(=O)NCCCCNc2ccnc3cc(Cl)ccc23)cc1	386	353	> 10		
CCN(CC)CCCC(C)N(Cc1cccc(OCc2ccccc2)c1)C(=O)NCc1ccccc1 (stereo unspecified)	> 1250	> 1100	> 10		
Cc1cccc(C2Sc3ccccc3N=C3c4ccccc4C(=O)C32)c1 (stereo unspecified)	300	140	24.4		
COc1ccc(C(=O)C(C#N)=CNC2CCN(Cc3ccccc3)CC2)cc1	177	875	24.8		
CC(=NOC(=O)c1ccco1)c1cnccn1	1250	> 1250	> 10		
O=C(c1cccs1)N(Cc1cccs1)c1ccc([N+](=O)[O-])cc1	677	888	> 10		
COc1ccccc1NC(=O)c1n[nH]c(=O)c2ccccc12	> 1060	> 1250	> 10		
CCOc1ccc(NC(=O)NC(Cc2c[nH]c3ccccc23)C(=O)N2CCN(C(=O)NC(C)C)C(C)C2)cc1 (stereo unspecified)	259	223	> 10		
O=C(Nc1ccc(N2CCCCC2)cc1)N1CCc2nc[nH]c2C1c1ccc(Cl)cc1 (stereo unspecified)	640	239	> 5.04		

Compound	EC50 (Plasmodium falciparum [1]; Plasmodium falciparum, 3D7) [nM]	EC50 (Plasmodium falciparum [2]; Plasmodium falciparum, W2) [nM]	CC50 [3] [µM]	EC50 (Plasmodium falciparum [1]) [nM]	EC50 (Plasmodium falciparum [2]) [nM]
O=C(NCc1ccccc1)c1cnc(NCCCN2CCCC2)nc1NCC1CCCCC1	733	> 1250	> 10		
Cc1sc2nc(C3CC3)n(C3CCN(C(=O)C4CC=CCC4)CC3)c(=O)c2c1C (stereo unspecified)	> 1250	> 560	> 10		
C=CCC1C=C(Cc2ccccc2)CC(CC=C)N1 (stereo unspecified)	4310	188	46		
Cc1ccc(-n2c(C(C)N(Cc3ccco3)C(=O)C3CCC3)nc3cc(Cl)ccc3c2=O)cc1 (stereo unspecified)	> 1680	208	> 2.76		
CCN1CCN(c2cc(C)c3cc(NC(=O)/C=C/c4sccc4C)ccc3n2)CC1	1590	> 1550	> 10		
CCCCCOC(=O)C1=C(C)NC2=C(C(=O)CC(C)(C)C2)C1c1ccncc1 (stereo unspecified)	5190	1860	> 100		
c1ccc2c(NCCc3c[nH]cn3)c3ccccc3nc2c1	1730	2460	23.3		
Cc1ccc2nc(-c3ccccc3)cc(C(=O)Nc3ccc(Cl)c(Cl)c3)c2c1	> 1250	1700	> 10		
COCCOC(=O)C1=C(C)NC2=C(C(=O)CC(c3ccc(OC)c(OC)c3)C2)C1c1ccc(Cl)cc1Cl (stereo unspecified)	22.4	13.1	> 100		
c1cncc(-c2ncc(-c3cnccn3)c(-c3cccnc3)n2)c1	> 1250	> 374	> 10		
c1cn2c(-c3ccc(N4CCOCC4)cc3)cnc2c(NCc2ccc3c(c2)OCO3)n1	> 927	> 1250	> 10		
CCCCn1c(NN=C2C(=O)Nc3ccccc32)nc2c1c(=O)[nH]c(=O)n2C	1600	1130	> 10		
CCCCCCN(C(=O)c1ccc2c(c1)OCO2)C(CC)c1nc2ccccc2c(=O)n1-c1ccccc1OC (stereo unspecified)	862	647	> 4.51		
CCc1cc2c(Sc3nnc(N)s3)ncnc2s1	546	540	> 10		
Nc1ccc(Nc2ccc(N)cc2)cc1	319	711	> 10		
CCC(C)NC(=O)c1c[nH]c2ccc(S(=O)(=O)N3CCc4ccccc43)cc2c1=O (stereo unspecified)	> 1250	424	> 10		
CN1C=CC=CC1=CC=C1C=Nc2ccccc21	236	232	20.9		
COc1ccc(-c2c[n+](CC(=O)c3ccc(C)cc3)c3n2CCC3)cc1	745	200	> 100		
COc1cccc(NC(=O)c2sc3ncn(CC(=O)N4CCN(c5ccccn5)CC4)c(=O)c3c2C)c1	> 12500	1240	> 100		
COc1cc(NC(C)CCCN(Cc2ccc(Cl)cc2)C(=O)C(C)C)c2ncccc2c1 (stereo unspecified)	1680	1120	13.2		
O=C(C(Cc1ccc(O)cc1)c1ccccc1)N1CCC(n2c(Cc3ccc(F)cc3)nc3cccnc32)CC1 (stereo unspecified)	351	138	> 100		
CC(C)CNC(=O)c1cc(NC(=O)c2cccs2)ccc1N1CCc2ccccc2C1	349	32.7	0.893		
CC[C@@H]1CCC[C@H](C)CC[C@@H](O[C@@H]2O[C@@H](C)[C@@H](O)[C@@H](N)[C@H]2O)[C@H](CC)CCCNC1=O	1580	> 1250	> 6.25		

Compound	EC50 (Plasmodium falciparum [1]; Plasmodium falciparum, 3D7) [nM]	EC50 (Plasmodium falciparum [2]; Plasmodium falciparum, W2) [nM]	CC50 [3] [µM]	EC50 (Plasmodium falciparum [1]) [nM]	EC50 (Plasmodium falciparum [2]) [nM]
COc1ccc2nc(C)cc(Nc3ccc(Oc4ccc(Br)c5ccccc45)c(Cl)c3)c2c1	1110	2340	18.3		
O=C(NCCCN1CCOCC1)c1c[nH]c2ccc(S(=O)(=O)N3CCc4ccccc43)cc2c1=O	610	1110	> 100		
FC(F)(F)COc1nc(N2CCCCC2)nc(N(c2ccccc2)c2ccccc2)n1	> 5970	2790	> 100		
CN(C)c1ccc(-c2cc(-c3ccccc3)[s+]c(-c3ccccc3)c2)cc1	318	73.7	1.69		
O=C(Nc1cc(C(F)(F)F)cc(C(F)(F)F)c1)Nc1ccc2nnsc2c1	6370	4360	19.4		
CC1=C[C@H]2O[C@@H]3C[C@H]4OC(=O)C=CC=C[C@H]([C@@H](C)O)OCC[C@@H](C)[C@H](O)C(=O)OC[C@@]2(CC1)[C@]4(C)[C@@]31CO1			0.00604	< 0.572	< 0.572
c1ccc(CCNC2CCN(Cc3ccccc3)CC2)cc1	1470	500	43.5		
Ic1ccc(NCc2cn3ccccc3n2)cc1	6370	4070	> 100		
C/C=C/c1n(C)c2ccccc2[n+]1C	501	589	> 10		
CN(C)c1cc[n+](CC(=O)c2ccc(Br)cc2)cc1	211	183	75.6		
Cc1cc(C)cc(OCC(=O)N2N=C(C(C)C)CC2(O)C(F)(F)F)c1 (stereo unspecified)	1750	> 1220	> 10		
CC(=O)O[C@@H]1C(=O)[C@@]2(C)[C@H]([C@H](OC(=O)c3ccccc3)[C@@]3(O)C[C@H](OC(=O)[C@H](O)[C@@H](NC(=O)c4ccccc4)c4ccccc4)C(C)=C1C3(C)C)[C@]1(OC(C)=O)CO[C@@H]1C[C@@H]2O	98.2	38.6	1.21		
Brc1ccc(Nc2nc(NCc3ccco3)c3ccccc3n2)cc1	196	192	7.15		
CN(C)c1ccc(N=C2NC(=O)/C(=C/c3ccc(Cl)cc3)S2)cc1	819	1460	> 10		
Cc1ccc(N2CCN(CCNCc3ccc(F)cc3)[C@@H](Cc3ccc(O)cc3)C2)cc1	443	240	> 10		
Cn1nc(C(F)(F)F)c(-c2ccc(F)cc2)c1NC(=O)Nc1ccccc1	392	353	54.3		
NS(=O)(=O)c1ccc(N/C=C/C(=O)c2ccc(Cl)s2)cc1	1830	> 1250	> 8.69		
CCCNC1=C(N(C(C)=O)c2cccc(F)c2)C(=O)c2ccccc2C1=O	29	28.4	5.39		
O=C(Nc1ccc(-c2nc3ccccc3[nH]2)cc1)c1ccc(-c2cccc([N+](=O)[O-])c2)o1	2240	924	> 100		
CCCSCCCNC(=O)c1oc2c(c1C)-c1[nH]ncc1CC2	> 1150	> 725	> 10		
CN(CCCNc1ccnc2cc(Cl)ccc12)C(=O)c1ccc(F)cc1	127	212	> 10		
